# Assay results from US11541028B2, “Peptide pharmaceuticals for treatment of NASH and other disorders” (Mederis Diabetes LLC, priority 2018, dated 2023).
# Like-named read-outs stand apart in the source and are kept apart here. Bridge positions count the residues as written; N and C are the ends. Square brackets hold non-standard residues; d marks the D form. Peptide text beside a SMILES is read from it. * marks the point of attachment. X1 = CCCCCCCCCCCCCCCCO[C@@H]1O[C@H](CO[C@H]2O[C@H](C(=O)*)[C@H](O)[C@H](O)[C@H]2O)[C@@H](O)[C@H](O)[C@H]1O; X2 = CCCCCCCCCCCCCCO[C@@H]1O[C@H](CO[C@H]2O[C@H](C(=O)*)[C@H](O)[C@H](O)[C@H]2O)[C@@H](O)[C@H](O)[C@H]1O; GlcA(1β-O-tetradecyl) = CCCCCCCCCCCCCCO[C@@H]1O[C@H](C(=O)*)[C@@H](O)[C@H](O)[C@H]1O; Aib = CC(C)(N)C(=O)O
# Legend:
# human GLP-1 receptor = biological target: T1, human GLP-1 receptor (Homo sapiens, UniProt P43220); test: DiscoveRx LeadHunter cellular assay, cAMP stimulation, GLP-1 receptor in CHO cells; assay type: cell-based; conditions: human GLP-1 receptor in CHO cells (DiscoveRx); read-out: EC50 cAMP GLP-1 R
# T1 construct: host or cells: CHO cells
# T1 sequence (P43220 24-463): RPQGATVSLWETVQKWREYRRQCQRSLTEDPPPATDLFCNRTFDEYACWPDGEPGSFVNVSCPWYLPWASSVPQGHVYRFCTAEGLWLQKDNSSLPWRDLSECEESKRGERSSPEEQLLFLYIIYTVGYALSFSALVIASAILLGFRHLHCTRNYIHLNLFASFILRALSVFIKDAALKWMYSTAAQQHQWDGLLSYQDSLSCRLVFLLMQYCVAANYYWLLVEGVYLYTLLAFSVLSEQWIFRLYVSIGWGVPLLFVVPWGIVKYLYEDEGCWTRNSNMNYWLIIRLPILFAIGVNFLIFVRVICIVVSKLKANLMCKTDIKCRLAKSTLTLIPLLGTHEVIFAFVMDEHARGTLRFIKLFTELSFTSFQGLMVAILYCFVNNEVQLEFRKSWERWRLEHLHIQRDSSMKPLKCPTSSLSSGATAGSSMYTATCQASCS
# human glucagon receptor = biological target: T2, human glucagon receptor (Homo sapiens, UniProt P47871); test: DiscoveRx LeadHunter cellular assay, cAMP stimulation, glucagon receptor in CHO cells; assay type: cell-based
# T2 construct: host or cells: CHO cells
# T2 sequence (P47871 26-477): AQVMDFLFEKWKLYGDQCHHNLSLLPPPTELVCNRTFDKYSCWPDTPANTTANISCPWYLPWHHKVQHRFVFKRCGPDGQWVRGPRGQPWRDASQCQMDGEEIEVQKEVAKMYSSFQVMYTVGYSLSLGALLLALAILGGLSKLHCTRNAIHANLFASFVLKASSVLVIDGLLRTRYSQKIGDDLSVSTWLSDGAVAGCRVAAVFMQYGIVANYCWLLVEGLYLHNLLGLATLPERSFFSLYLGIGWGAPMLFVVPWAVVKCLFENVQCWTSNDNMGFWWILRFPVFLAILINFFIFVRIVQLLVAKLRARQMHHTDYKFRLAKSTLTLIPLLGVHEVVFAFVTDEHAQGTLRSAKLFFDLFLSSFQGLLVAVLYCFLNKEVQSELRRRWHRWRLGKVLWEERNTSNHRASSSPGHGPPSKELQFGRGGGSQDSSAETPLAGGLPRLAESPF
SMILES,EC50 (human GLP-1 receptor) [nM],EC50 (human glucagon receptor) [nM],"EC50 (human glucagon receptor; read-out: EC50 cAMP Glucagon R, human glucagon receptor in CHO cells (DiscoveRx)) [nM]"
CCCCCCCCCCO[C@@H]1O[C@H](C(=O)N[C@@H](CCC(=O)NCCCC[C@H](NC(=O)[C@@H](NC(=O)[C@H](Cc2ccccc2)NC(=O)[C@H](CCC(=O)O)NC(=O)[C@@H]2CCCCNC(=O)CC[C@H](NC(=O)[C@H](CC(=O)O)NC(=O)[C@H](CC(C)C)NC(=O)[C@H](Cc3ccc(O)cc3)NC(=O)[C@H](CCCCN)NC(=O)[C@H](CO)NC(=O)[C@H](Cc3ccc(O)cc3)NC(=O)[C@H](CC(=O)O)NC(=O)[C@H](CO)NC(=O)[C@@H](NC(=O)[C@H](Cc3ccccc3)NC(=O)[C@@H](NC(=O)CNC(=O)[C@H](CCC(N)=O)NC(=O)C(C)(C)NC(=O)[C@@H](N)Cc3c[nH]cn3)[C@@H](C)O)[C@@H](C)O)C(=O)N[C@@H](CCC(N)=O)C(=O)N[C@@H](C)C(=O)N[C@@H](C)C(=O)N2)[C@@H](C)CC)C(=O)N[C@@H](Cc2c[nH]c3ccccc23)C(=O)N[C@@H](CC(C)C)C(=O)N[C@@H](CC(C)C)C(=O)N[C@@H](CCC(N)=O)C(=O)N[C@H](C(N)=O)[C@@H](C)O)C(=O)O)[C@@H](O)[C@H](O)[C@H]1O [EU-A1716],0.013,0.032,–
CCCCCCCCCCCCO[C@@H]1O[C@H](C(=O)N[C@@H](CCC(=O)NCCCC[C@H](NC(=O)[C@@H](NC(=O)[C@H](Cc2ccccc2)NC(=O)[C@H](CCC(=O)O)NC(=O)[C@@H]2CCCCNC(=O)CC[C@H](NC(=O)[C@H](CC(=O)O)NC(=O)[C@H](CC(C)C)NC(=O)[C@H](Cc3ccc(O)cc3)NC(=O)[C@H](CCCCN)NC(=O)[C@H](CO)NC(=O)[C@H](Cc3ccc(O)cc3)NC(=O)[C@H](CC(=O)O)NC(=O)[C@H](CO)NC(=O)[C@@H](NC(=O)[C@H](Cc3ccccc3)NC(=O)[C@@H](NC(=O)CNC(=O)[C@H](CCC(N)=O)NC(=O)C(C)(C)NC(=O)[C@@H](N)Cc3c[nH]cn3)[C@@H](C)O)[C@@H](C)O)C(=O)N[C@@H](CCC(N)=O)C(=O)N[C@@H](C)C(=O)N[C@@H](C)C(=O)N2)[C@@H](C)CC)C(=O)N[C@@H](Cc2c[nH]c3ccccc23)C(=O)N[C@@H](CC(C)C)C(=O)N[C@@H](CC(C)C)C(=O)N[C@@H](CCC(N)=O)C(=O)N[C@H](C(N)=O)[C@@H](C)O)C(=O)O)[C@@H](O)[C@H](O)[C@H]1O [EU-A1717],0.011,0.035,–
CCCCCCCCCCCCCCO[C@@H]1O[C@H](C(=O)N[C@@H](CCC(=O)NCCCC[C@H](NC(=O)[C@@H](NC(=O)[C@H](Cc2ccccc2)NC(=O)[C@H](CCC(=O)O)NC(=O)[C@@H]2CCCCNC(=O)CC[C@H](NC(=O)[C@H](CC(=O)O)NC(=O)[C@H](CC(C)C)NC(=O)[C@H](Cc3ccc(O)cc3)NC(=O)[C@H](CCCCN)NC(=O)[C@H](CO)NC(=O)[C@H](Cc3ccc(O)cc3)NC(=O)[C@H](CC(=O)O)NC(=O)[C@H](CO)NC(=O)[C@@H](NC(=O)[C@H](Cc3ccccc3)NC(=O)[C@@H](NC(=O)CNC(=O)[C@H](CCC(N)=O)NC(=O)C(C)(C)NC(=O)[C@@H](N)Cc3c[nH]cn3)[C@@H](C)O)[C@@H](C)O)C(=O)N[C@@H](CCC(N)=O)C(=O)N[C@@H](C)C(=O)N[C@@H](C)C(=O)N2)[C@@H](C)CC)C(=O)N[C@@H](Cc2c[nH]c3ccccc23)C(=O)N[C@@H](CC(C)C)C(=O)N[C@@H](CC(C)C)C(=O)N[C@@H](CCC(N)=O)C(=O)N[C@H](C(N)=O)[C@@H](C)O)C(=O)O)[C@@H](O)[C@H](O)[C@H]1O [EU-A1718],0.043,–,0.097
CCCCCCCCCCCCCCCCO[C@@H]1O[C@H](C(=O)N[C@@H](CCC(=O)NCCCC[C@H](NC(=O)[C@@H](NC(=O)[C@H](Cc2ccccc2)NC(=O)[C@H](CCC(=O)O)NC(=O)[C@@H]2CCCCNC(=O)CC[C@H](NC(=O)[C@H](CC(=O)O)NC(=O)[C@H](CC(C)C)NC(=O)[C@H](Cc3ccc(O)cc3)NC(=O)[C@H](CCCCN)NC(=O)[C@H](CO)NC(=O)[C@H](Cc3ccc(O)cc3)NC(=O)[C@H](CC(=O)O)NC(=O)[C@H](CO)NC(=O)[C@@H](NC(=O)[C@H](Cc3ccccc3)NC(=O)[C@@H](NC(=O)CNC(=O)[C@H](CCC(N)=O)NC(=O)C(C)(C)NC(=O)[C@@H](N)Cc3c[nH]cn3)[C@@H](C)O)[C@@H](C)O)C(=O)N[C@@H](CCC(N)=O)C(=O)N[C@@H](C)C(=O)N[C@@H](C)C(=O)N2)[C@@H](C)CC)C(=O)N[C@@H](Cc2c[nH]c3ccccc23)C(=O)N[C@@H](CC(C)C)C(=O)N[C@@H](CC(C)C)C(=O)N[C@@H](CCC(N)=O)C(=O)N[C@H](C(N)=O)[C@@H](C)O)C(=O)O)[C@@H](O)[C@H](O)[C@H]1O [EU-A1719],0.095,0.746,–
CCCCCCCCCCO[C@@H]1O[C@H](C(=O)N[C@@H](CCC(=O)N[C@@H](CCC(=O)NCCCC[C@H](NC(=O)[C@@H](NC(=O)[C@H](Cc2ccccc2)NC(=O)[C@H](CCC(=O)O)NC(=O)[C@@H]2CCCCNC(=O)CC[C@H](NC(=O)[C@H](CC(=O)O)NC(=O)[C@H](CC(C)C)NC(=O)[C@H](Cc3ccc(O)cc3)NC(=O)[C@H](CCCCN)NC(=O)[C@H](CO)NC(=O)[C@H](Cc3ccc(O)cc3)NC(=O)[C@H](CC(=O)O)NC(=O)[C@H](CO)NC(=O)[C@@H](NC(=O)[C@H](Cc3ccccc3)NC(=O)[C@@H](NC(=O)CNC(=O)[C@H](CCC(N)=O)NC(=O)C(C)(C)NC(=O)[C@@H](N)Cc3c[nH]cn3)[C@@H](C)O)[C@@H](C)O)C(=O)N[C@@H](CCC(N)=O)C(=O)N[C@@H](C)C(=O)N[C@@H](C)C(=O)N2)[C@@H](C)CC)C(=O)N[C@@H](Cc2c[nH]c3ccccc23)C(=O)N[C@@H](CC(C)C)C(=O)N[C@@H](CC(C)C)C(=O)N[C@@H](CCC(N)=O)C(=O)N[C@H](C(N)=O)[C@@H](C)O)C(=O)O)C(=O)O)[C@@H](O)[C@H](O)[C@H]1O [EU-A1722],0.006,0.012,–

# The remaining lines, values ahead:
EC50 (human GLP-1 receptor) [nM],EC50 (human glucagon receptor) [nM],"EC50 (human glucagon receptor; read-out: EC50 cAMP Glucagon R, human glucagon receptor in CHO cells (DiscoveRx)) [nM]",SMILES
0.028,0.062,–,CCCCCCCCCCCCO[C@@H]1O[C@H](C(=O)N[C@@H](CCC(=O)N[C@@H](CCC(=O)NCCCC[C@H](NC(=O)[C@@H](NC(=O)[C@H](Cc2ccccc2)NC(=O)[C@H](CCC(=O)O)NC(=O)[C@@H]2CCCCNC(=O)CC[C@H](NC(=O)[C@H](CC(=O)O)NC(=O)[C@H](CC(C)C)NC(=O)[C@H](Cc3ccc(O)cc3)NC(=O)[C@H](CCCCN)NC(=O)[C@H](CO)NC(=O)[C@H](Cc3ccc(O)cc3)NC(=O)[C@H](CC(=O)O)NC(=O)[C@H](CO)NC(=O)[C@@H](NC(=O)[C@H](Cc3ccccc3)NC(=O)[C@@H](NC(=O)CNC(=O)[C@H](CCC(N)=O)NC(=O)C(C)(C)NC(=O)[C@@H](N)Cc3c[nH]cn3)[C@@H](C)O)[C@@H](C)O)C(=O)N[C@@H](CCC(N)=O)C(=O)N[C@@H](C)C(=O)N[C@@H](C)C(=O)N2)[C@@H](C)CC)C(=O)N[C@@H](Cc2c[nH]c3ccccc23)C(=O)N[C@@H](CC(C)C)C(=O)N[C@@H](CC(C)C)C(=O)N[C@@H](CCC(N)=O)C(=O)N[C@H](C(N)=O)[C@@H](C)O)C(=O)O)C(=O)O)[C@@H](O)[C@H](O)[C@H]1O [EU-A1723]
0.006,0.558,–,CCCCCCCCCCCCCCO[C@@H]1O[C@H](CO[C@H]2O[C@H](C(=O)NCCCC[C@H](NC(=O)[C@H](C)NC(=O)[C@H](C)NC(=O)[C@H](CCC(N)=O)NC(=O)[C@H](CO)NC(=O)[C@H](CC(=O)O)NC(=O)[C@@H]3CCCCNC(=O)CC[C@H](NC(=O)[C@H](CC(=O)O)NC(=O)[C@H](CO)NC(=O)[C@@H](NC(=O)[C@H](Cc4ccccc4)NC(=O)[C@@H](NC(=O)CNC(=O)[C@H](CCC(N)=O)NC(=O)C(C)(C)NC(=O)[C@@H](N)Cc4c[nH]cn4)[C@@H](C)O)[C@@H](C)O)C(=O)N[C@@H](CO)C(=O)N[C@@H](CCCCN)C(=O)N[C@@H](Cc4ccc(O)cc4)C(=O)N3)C(=O)N[C@@H](CCC(=O)O)C(=O)N[C@@H](Cc3ccccc3)C(=O)N[C@H](C(=O)N[C@@H](CCC(N)=O)C(=O)N[C@@H](Cc3c[nH]c4ccccc34)C(=O)N[C@@H](CC(C)C)C(=O)N[C@@H](CC(C)C)C(=O)N[C@@H](CCC(N)=O)C(=O)N[C@H](C(N)=O)[C@@H](C)O)[C@@H](C)CC)[C@H](O)[C@H](O)[C@H]2O)[C@@H](O)[C@H](O)[C@H]1O [EU-A1729] (H-H[Aib]QGTFTSDESKYKDSQAAK(X2)EFIQWLLQT-NH2; lactam 10-14)
0.008,1.17,–,CCCCCCCCCCCCCCCCO[C@@H]1O[C@H](CO[C@H]2O[C@H](C(=O)NCCCC[C@H](NC(=O)[C@H](C)NC(=O)[C@H](C)NC(=O)[C@H](CCC(N)=O)NC(=O)[C@H](CO)NC(=O)[C@H](CC(=O)O)NC(=O)[C@@H]3CCCCNC(=O)CC[C@H](NC(=O)[C@H](CC(=O)O)NC(=O)[C@H](CO)NC(=O)[C@@H](NC(=O)[C@H](Cc4ccccc4)NC(=O)[C@@H](NC(=O)CNC(=O)[C@H](CCC(N)=O)NC(=O)C(C)(C)NC(=O)[C@@H](N)Cc4c[nH]cn4)[C@@H](C)O)[C@@H](C)O)C(=O)N[C@@H](CO)C(=O)N[C@@H](CCCCN)C(=O)N[C@@H](Cc4ccc(O)cc4)C(=O)N3)C(=O)N[C@@H](CCC(=O)O)C(=O)N[C@@H](Cc3ccccc3)C(=O)N[C@H](C(=O)N[C@@H](CCC(N)=O)C(=O)N[C@@H](Cc3c[nH]c4ccccc34)C(=O)N[C@@H](CC(C)C)C(=O)N[C@@H](CC(C)C)C(=O)N[C@@H](CCC(N)=O)C(=O)N[C@H](C(N)=O)[C@@H](C)O)[C@@H](C)CC)[C@H](O)[C@H](O)[C@H]2O)[C@@H](O)[C@H](O)[C@H]1O [EU-A1730] (H-H[Aib]QGTFTSDESKYKDSQAAK(X1)EFIQWLLQT-NH2; lactam 10-14; N-terminus assumed)
0.006,0.387,–,CCCCCCCCCCCCCCO[C@@H]1O[C@H](C(=O)NCCCC[C@H](NC(=O)[C@H](C)NC(=O)[C@H](C)NC(=O)[C@H](CCC(N)=O)NC(=O)[C@H](CO)NC(=O)[C@H](CC(=O)O)NC(=O)[C@@H]2CCCCNC(=O)CC[C@H](NC(=O)[C@H](CC(=O)O)NC(=O)[C@H](CO)NC(=O)[C@@H](NC(=O)[C@H](Cc3ccccc3)NC(=O)[C@@H](NC(=O)CNC(=O)[C@H](CCC(N)=O)NC(=O)C(C)(C)NC(=O)[C@@H](N)Cc3c[nH]cn3)[C@@H](C)O)[C@@H](C)O)C(=O)N[C@@H](CO)C(=O)N[C@@H](CCCCN)C(=O)N[C@@H](Cc3ccc(O)cc3)C(=O)N2)C(=O)N[C@@H](CCC(=O)O)C(=O)N[C@@H](Cc2ccccc2)C(=O)N[C@H](C(=O)N[C@@H](CCC(N)=O)C(=O)N[C@@H](Cc2c[nH]c3ccccc23)C(=O)N[C@@H](CC(C)C)C(=O)N[C@@H](CC(C)C)C(=O)N[C@@H](CCC(N)=O)C(=O)N[C@H](C(N)=O)[C@@H](C)O)[C@@H](C)CC)[C@@H](O)[C@H](O)[C@H]1O [EU-A1734] (H-H[Aib]QGTFTSDESKYKDSQAAK(GlcA(1β-O-tetradecyl))EFIQWLLQT-NH2; lactam 10-14; N-terminus assumed)
